Test results from patent publication US9421186B2, “Method for improving therapy for autoimmune diseases such as rheumatoid arthritis” (priority 2012, dated 2016).
Read-outs that look alike come from different tables or passages of the source. Values belong to the molecule of their own block, whether it stands above or below them.

How the values were obtained:
adjuvant arthritis [1] = test: Adjuvant-induced arthritis in rats, paw swelling of both hind legs, therapeutic dosing (Test Example 2); type: in vivo, Lewis male rat; settings: oral once a day for 7 days from day 18, 25th day; for Swelling rate: average of both hind legs; for Inhibition rate: vs control swelling rate
Procedure: A suspension of dead Mycobacterium tuberculosis in liquid paraffin (0.6 mg/0.1 mL) was intradermally injected to the base of tail of each Lewis male rat to induce adjuvant arthritis. On the 18th day after the induction of arthritis, the paw volumes of both hind legs were measured. The rats were grouped so that the paw volumes of both hind legs averaged out per group. The test substances were separately suspended or dissolved in 0.5% aqueous methylcellulose solutions to prepare dosing solutions, which were orally administered once a day for 7 days from the grouping date. In the case of combined administration, both test substances were simultaneously administered through an oral route.
The dose of iguratimod was set to 1 mg/kg, while the dose of prednisolone was set to 5 mg/kg. Alternatively, 1 mg/kg iguratimod and 5 mg/kg prednisolone were orally administered in combination.
1 mL of 0.5% aqueous methylcellulose solution per 100 g of body weight was orally administered to a control group that received no test substance after the grouping.
On the day after the final administration (on the 25th day after the induction of arthritis), the paw volumes of both hind legs were measured for each group. Subsequently, the rats were killed by blood removal. Then, their thymus glands, spleens, and adrenal glands were extirpated, and the weights were measured to calculate the ratio of each organ weight to 100 g body weight.

HepG2 cells [2] = test: Cellular damage of HepG2 cells, LDH release (Test Example 3); settings: iguratimod 0, HepG2, 24 hours; for Rate of LDH release: control 14.2
Procedure: (§1) HepG2 cells floating in a Dulbecco's modified Eagle's medium (DMEM) containing 10% fetal bovine serum (FBS) were inoculated at a concentration of 3.5×10^4 cells/0.1 mL/well to a 96-well plate and cultured at 37° C. for approximately 24 hours in a 5% CO2 atmosphere. Then, the medium was replaced by DMEM containing iguratimod and methotrexate and containing 0.5% FBS, and the cells were further cultured therein for 24 hours. In this context, iguratimod was dissolved in a 1.12-fold molar quantity of 0.1 mol/L sodium hydroxide solution, diluted with distilled water, and then added to the culture solution. Methotrexate was dissolved in dimethyl sulfoxide (DMSO) and added to the culture solution. Test substance-free DMEM containing 0.25% DMSO and 0.5% FBS was used in a control group.
(§2) After the completion of culture, each culture supernatant was separated, and the activity of lactate dehydrogenase (LDH) released outside the cells was determined using Cytotoxicity Detection Kit (LDH) (Roche Applied Science). In order to determine LDH activity in the whole cells, 0.1 mL of DMEM containing 2% Triton X-100 and 0.5% FBS was then added to each well after the culture supernatant separation to prepare a cell lysate. The LDH activity was determined in the same way as above.
(§3) The rate of LDH release (%) was calculated according to the formula shown below and indicated by the average value of each group. Its ratio with respect to the control group was also determined. Rate of LDH release (%)=Activity in the culture supernatant/(Activity in the culture supernatant+Activity in the cell lysate)×100

adjuvant arthritis [3] = test: Adjuvant-induced arthritis in rats, paw swelling of left hind leg (Test Example 1); type: in vivo, Lewis male rat; settings: oral once a day for 21 days; for Swelling rate: left hind leg, 21st day after arthritis induction; for Inhibition rate: vs control swelling rate, 21st day
Procedure: A suspension of dead Mycobacterium tuberculosis in liquid paraffin (0.6 mg/0.1 mL) was intradermally injected in the plantar region of left hind paw of each Lewis male rat to induce adjuvant arthritis. The paw volumes of both hind legs were measured using a plethysmometer on a daily basis from before to after the induction of arthritis. The test substances were separately suspended or dissolved in 0.5% aqueous methylcellulose solutions to prepare dosing solutions, which were orally administered once a day for 21 days from immediately after the adjuvant injection. In the case of combined administration, both test substances were simultaneously administered.
The dose of iguratimod was set to 3 mg/kg, while the dose of methotrexate was set to 0.1 mg/kg. Alternatively, 3 mg/kg iguratimod and 0.1 mg/kg methotrexate were administered in combination.
1 mL of 0.5% aqueous methylcellulose solution per 100 g of body weight was orally administered to an untreated normal group and a control group that received no test substance after the induction of arthritis.
On the day after the final administration (on the 21st day after the induction of arthritis), the paw volume of the left hind leg was measured for each group. Subsequently, peripheral blood was collected therefrom, and the reticulocyte count was measured.

HepG2 cells [4] = settings: human, 24 h
Procedure: as §1, §2, §3

Compound: C[C@]12C=CC(=O)C=C1CC[C@@H]1[C@@H]2[C@@H](O)C[C@@]2(C)[C@H]1CC[C@]2(O)C(=O)CO [Prednisolone, prednisolone]
Swelling rate (adjuvant arthritis [1]; prednisolone 5 mg/kg): 66% | Inhibition rate (adjuvant arthritis [1]; prednisolone 5 mg/kg): 37%

Compound: CN(Cc1cnc2nc(N)nc(N)c2n1)c1ccc(C(=O)N[C@@H](CCC(=O)O)C(=O)O)cc1 [Methotrexate, methotrexate]
Rate of LDH release, ratio to control group (HepG2 cells [2]; methotrexate 1 μg/mL): 172% | Rate of LDH release (HepG2 cells [2]; methotrexate 1 μg/mL): 24.4% | Rate of LDH release, ratio to control group (HepG2 cells [2]; methotrexate 10 μg/mL): 189% | Rate of LDH release (HepG2 cells [2]; methotrexate 10 μg/mL): 26.8% | Swelling rate (adjuvant arthritis [3]; methotrexate 0.1 mg/kg): 114% | Inhibition rate (adjuvant arthritis [3]; methotrexate 0.1 mg/kg): 26%

Rate of LDH release (HepG2 cells [4]; 3 μg/mL): 15.9% | Rate of LDH release, ratio to control group (HepG2 cells [4]; 3 μg/mL): 112% | Rate of LDH release (HepG2 cells [4]; 30 μg/mL): 17.0% | Rate of LDH release, ratio to control group (HepG2 cells [4]; 30 μg/mL): 120%
Compound: CS(=O)(=O)Nc1cc2occ(NC=O)c(=O)c2cc1Oc1ccccc1 [Iguratimod, N-[7-[(methanesulfonyl)amino]-4-oxo-6-phenoxy-4H-1-benzopyran-3-yl]formamide]
Swelling rate (adjuvant arthritis [1]; iguratimod 1 mg/kg): 76% | Inhibition rate (adjuvant arthritis [1]; iguratimod 1 mg/kg): 28% | Swelling rate (adjuvant arthritis [3]; iguratimod 3 mg/kg): 93% | Inhibition rate (adjuvant arthritis [3]; iguratimod 3 mg/kg): 40%
